Source: US8552057B2, “Phytoestrogenic formulations for alleviation or prevention of neurodegenerative diseases” (priority 2006, dated 2013)
Like-named read-outs stand apart in the source and are kept apart here.

Assays:
[1] = system: adult ovariectomized rats; assay: Uterine weight in adult ovariectomized rats; settings: 6 mg/kg BW
[2] = system: primary hippocampal neurons; assay: Glutamate-induced neurotoxicity, LDH release; settings: for LDH Release (% of Control): 48 h pretreatment, 5-min glutamate, LDH 24 h later; for concentration that elicited the maximal neuroprotective effects: from the dose-response analyses, administered alone
human ERβ = human ERβ (Homo sapiens (Human), UniProt Q92731); assay: Fluorescence polarization competitive binding assay, ERβ; settings: for ERβ RBA (%): percent of the binding affinity of 17β-estradiol (RBA = 100%)
human ERα = human ERα (Homo sapiens (Human), UniProt P03372); assay: Fluorescence polarization competitive binding assay, ERα; settings: for ERα RBA (%): percent of the binding affinity of 17β-estradiol (RBA = 100%)
[3] = system: adult ovariectomized rats; settings: rat, in vivo
[4] = 2 subcutaneous injections once daily, 24 h after 2nd injection
[5] = compared with vehicle-treated control (set as 0)

| SMILES | LDH Release (% of Control) ([2]; 1 nM) | LDH Release (% of Control) ([2]; 10 nM) | LDH Release (% of Control) ([2]; 100 nM) | LDH Release (% of Control) ([2]; 1 μM) | LDH Release (% of Control) ([2]; 10 μM) | concentration that elicited the maximal neuroprotective effects [2] | other results |
| --- | --- | --- | --- | --- | --- | --- | --- |
| O=c1c(-c2ccc(O)cc2)coc2cc(O)cc(O)c12 [genistein] | 361.03 ± 7.71 % of Control | 350.02 ± 8.21 % of Control | 347.24 ± 16.96 % of Control | 356.79 ± 11.15 % of Control | 377.84 ± 8.45 % of Control | 100 nM | Uterine Dry Weight [1, 4]: 28.14 ± 2.04 mg; Uterine Wet Weight [1, 4]: 144.11 ± 10.18 mg; Uterine Dry Weight Increase (%) [1, 5]: 6.49 ± 7.71%; Uterine Wet Weight Increase (%) [1, 5]: 12.92 ± 7.97% |
| O=c1c(-c2ccc(O)cc2)coc2cc(O)ccc12 [Daidzein, daidzein] | 338.39 ± 16.49 % of Control | 333.98 ± 9.10 % of Control | 301.42 ± 7.70 % of Control | 318.49 ± 15.92 % of Control | 325.41 ± 26.12 % of Control | 100 nM | ERβ RBA (%) (human ERβ): 1.867%; ERα RBA (%) (human ERα): 0.0949% |
| CC(=O)[C@H]1CC[C@H]2[C@@H]3CCC4=CC(=O)CC[C@]4(C)[C@H]3CC[C@]12C [Progesteron, progesterone, reference compound] | – | – | – | – | – | – | binding to ERβ (human ERβ): does not bind; binding to ERα (human ERα): does not bind |
| O=C1Oc2cc(O)cc(Cc3ccccc3)c2CC1c1ccc(Cl)cc1 (stereo not shown) [Compd 3] | – | – | – | – | – | – | IC50 (human ERβ; Table 1, read-out: IC50 ERβ): 250 nM |
| Oc1ccc([C@H]2COc3cc(O)ccc3C2)cc1 [Equol, equol] | 453.50 ± 23.37 % of Control | 403.78 ± 17.02 % of Control | 331.59 ± 9.67 % of Control | 381.80 ± 12.01 % of Control | 390.21 ± 9.40 % of Control | 100 nM | Selectivity (β/α) (human ERβ; Table 2): 10.09; IC50 (human ERβ; Table 2, full-length human ERβ, read-out: ERβ IC50): 582 nM; ERβ RBA (%) (human ERβ): 5.571%; IC50 (human ERα): 5880 nM; ERα RBA (%) (human ERα): 0.4306% |
| O=c1nc2n(c3cc4ccccc4cc13)Cc1ccccc1-2 [Compd 12] | – | – | – | – | – | – | binding to ERβ (human ERβ): either very weak or no binding |
| C[C@]12CC[C@@H]3c4ccc(O)cc4CC[C@H]3[C@@H]1CC[C@@H]2O [17β-Estradiol] | – | – | – | – | – | – | impact on uterine weight [3]: markedly increased |
